Patent publication US20240368181A1, “QUINOXALINE DERIVATIVES AND USES THEREOF” (Black Diamond Therapeutics, Inc., priority 2021, published 2024)

Columns and labels:
Format in all cases: cell-based
[1] = test system: SNU-16 (FGFR2-amplification) cells; assay: Cell proliferation assay (CellTiterGlo), SNU-16 cells; conditions: inhibition of cell growth, intracellular ATP (CellTiterGlo)
Text: (§1) The following is a non-limiting example that describes a cell proliferation assay used to determine the biological activity of the compounds of the present disclosure. More specifically, the assay as used to assess the ability of the compounds to inhibit cell proliferation.
(§2) Briefly, SNU-16 (FGFR2-amplification) cells, were resuspended at 18,520c/ml mL in RPMI containing 10% Heat Inactivated FBS, 1% L-glutamine and dispensed in duplicate (463c/well) into 384 well plates. UM-UC-14 (FGFR3-S249C) cells were resuspended at 40.000c/ml mL in RPMI containing 10% Heat Inactivated FBS, 1% L-glutamine and dispensed in duplicate (1000c/well) into 384 well plates. DMS-114 (FGFR1 overexpression) cells and were resuspended at 40,000c/ml mL in RPMI containing 10% Heat Inactivated FBS, 1% L-glutamine and dispensed in duplicate (1000c/well) into 384 well plates. RT-112 (FGFR3-Tacc3 fusion) cells were resuspended at 40,000c/ml mL in RPMI containing 10% Heat Inactivated FBS, 1% L-glutamine and dispensed in duplicate (1000c/well) into 384 well plates. To determine the effect of the compounds of the present disclosure on cell proliferation, SNU-16, UM-UC-14, DMS-114 and RT112 cells were incubated for 72 hours in the presence of vehicle control (DMSO) or a compound of the present disclosure at varying concentrations. Inhibition of cell growth was subsequently determined by luminescent quantification (Envision by Perkin Elmer) of intracellular ATP content using CellTiterGlo (Promega), according to the protocol provided by the manufacturer. To determine the IC50 values, the vehicle-treated cells were normalized as viable cells and analyzed using the CDD Vault software (Collaborative Drug Discovery, Burlingame, CA).

[2] = test system: DMS-114 (FGFR1 overexpression) cells; assay: Cell proliferation assay (CellTiterGlo), DMS-114 cells; conditions: 72 hours, inhibition of cell growth, intracellular ATP (CellTiterGlo)
Text: as §1, §2

[3] = test system: RT-112 (FGFR3-Tacc3 fusion) cells; assay: Cell proliferation assay (CellTiterGlo), RT-112 cells; conditions: RT112 cells, inhibition of cell growth, intracellular ATP (CellTiterGlo)
Text: as §1, §2

[4] = test system: UM-UC-14 (FGFR3-S249C) cells; assay: Cell proliferation assay (CellTiterGlo), UM-UC-14 cells; conditions: UMUC14, 72 h, inhibition of cell growth, intracellular ATP (CellTiterGlo)
Text: as §1, §2

[5] = test system: RT-112 (FGFR3-Tacc3 fusion) cells; assay: cell proliferation assay (CellTiterGlo), RT-112 cells; conditions: Homo sapiens, RT-112, RT112 cells, 72 hours
Method in brief: (§3)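 Each line was seeded and treated with varying compound concentrations or vehicle. Proliferation was read as CellTiterGlo ATP luminescence, and IC50 values were calculated from growth relative to vehicle-treated wells.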

[6] = test system: DMS-114 (FGFR1 overexpression) cells; assay: cell proliferation assay (CellTiterGlo), DMS-114 cells; conditions: Homo sapiens, DMS-114, 72 h
Method in brief: as §3

[7] = test system: SNU-16 (FGFR2-amplification) cells; assay: cell proliferation assay (CellTiterGlo), SNU-16 cells; conditions: Homo sapiens, 72 hours
Method in brief: as §3

[8] = test system: UM-UC-14 (FGFR3-S249C) cells; assay: cell proliferation assay (CellTiterGlo), UM-UC-14 cells; conditions: UMUC14, 72 h
Method in brief: as §3

IC50 ([1]; Homo sapiens, SNU-16, 72 h) | IC50 [7] | SMILES | IC50 ([2]; Homo sapiens) | IC50 ([3]; Homo sapiens, RT-112, 72 h) | IC50 [4] | IC50 [5] | IC50 [6] | IC50 [8] | further results
20 to 100 nM | – | Cc1nc2ccc(Oc3ccc4ncc(-c5cnn(CC6CC(C)OC(C)C6)c5)nc4c3Cl)cc2[nH]1 (centres unmarked) [Compound 1] | 20 to 100 nM | – | – | – | – | – | –
20 to 100 nM | – | Cc1nc2ccc(Oc3ccc4ncc(-c5cnn(CC6CCOC6)c5)nc4c3Cl)cc2[nH]1 (centres unmarked) [Compound 2] | ≥ 400 nM | 20 to 100 nM | 20 to 100 nM | – | – | – | –
20 to 100 nM | – | Cc1nc2ccc(Oc3ccc4ncc(-c5cnn(CC6CCN(C)C(C)(C)C6)c5)nc4c3Cl)cc2[nH]1 (centres unmarked) [Compound 3] | 100 to 400 nM | 20 to 100 nM | 20 to 100 nM | – | – | – | –
20 to 100 nM | – | Cc1nc2ccc(Oc3ccc4ncc(-c5cnn(CC6CCN(C)C6)c5)nc4c3Cl)cc2[nH]1 (centres unmarked) [Compound 4] | 100 to 400 nM | 20 to 100 nM | 20 to 100 nM | – | – | – | –
20 to 100 nM | – | Cc1nc2ccc(Oc3ccc4ncc(-c5cnn(CC6CC(C)N(C)C(C)C6)c5)nc4c3Cl)cc2[nH]1 (centres unmarked) [Compound 5] | ≥ 400 nM | 20 to 100 nM | 20 to 100 nM | – | – | – | –
20 to 100 nM | – | Cc1nc2ccc(Oc3ccc4ncc(-c5cnn(CC#N)c5)nc4c3Cl)cc2[nH]1 [Compound 6] | ≥ 400 nM | 20 to 100 nM | 100 to 400 nM | – | – | – | –
20 to 100 nM | – | Cc1nc2ccc(Oc3ccc4ncc(-c5cnn(C6CCCNC6)c5)nc4c3Cl)cc2[nH]1 (centres unmarked) [Compound 7] | 100 to 400 nM | 20 to 100 nM | 20 to 100 nM | – | – | – | –
20 to 100 nM | – | Cc1nc2ccc(Oc3ccc4ncc(-c5cnn(CC6CCOC(C)(C)C6)c5)nc4c3Cl)cc2[nH]1 (centres unmarked) [Compound 8] | 100 to 400 nM | < 20 nM | 20 to 100 nM | – | – | – | –
20 to 100 nM | – | Cc1nc2ccc(Oc3ccc4ncc(-c5cnn(CC6CCC(F)(F)CC6)c5)nc4c3Cl)cc2[nH]1 [Compound 9] | ≥ 400 nM | 20 to 100 nM | 20 to 100 nM | – | – | – | –
20 to 100 nM | – | Cc1nc2ccc(Oc3ccc4ncc(-c5cnn(CC6CCNC6)c5)nc4c3Cl)cc2[nH]1 (centres unmarked) [Compound 10] | ≥ 400 nM | 20 to 100 nM | 100 to 400 nM | – | – | – | –
– | – | Cc1nc2ccc(Oc3ccc4ncc(-c5cnn(CC6CCNCC6)c5)nc4c3Cl)cc2[nH]1 [Compound 11] | ≥ 400 nM | 20 to 100 nM | 100 to 400 nM | – | – | – | IC50 ([1]; 72 hours): 20 to 100 nM
20 to 100 nM | – | Cc1nc2ccc(Oc3ccc4ncc(-c5cnn(CC6CCN(S(=O)(=O)C(F)F)CC6)c5)nc4c3Cl)cc2[nH]1 [Compound 12] | 100 to 400 nM | 20 to 100 nM | 20 to 100 nM | – | – | – | –
20 to 100 nM | – | Cc1nc2ccc(Oc3ccc4ncc(-c5cnn(CC6CCN(S(=O)(=O)CCO)CC6)c5)nc4c3Cl)cc2[nH]1 [Compound 13] | ≥ 400 nM | 20 to 100 nM | 20 to 100 nM | – | – | – | –
< 20 nM | – | Cc1nc2ccc(Oc3ccc4ncc(-c5cnn(CC6CCN(C)CC6)c5)nc4c3Cl)cc2[nH]1 [Compound 14] | 100 to 400 nM | < 20 nM | < 20 nM | – | – | – | –
20 to 100 nM | – | Cc1nc2ccc(Oc3ccc4ncc(-c5cnn(CCO)c5)nc4c3Cl)cc2[nH]1 [Compound 15] | ≥ 400 nM | 20 to 100 nM | 20 to 100 nM | – | – | – | –
– | – | CC(=O)N1CCC(Cn2cc(-c3cnc4ccc(Oc5ccc6nc(C)[nH]c6c5)c(Cl)c4n3)cn2)CC1 [Compound 34] | ≥ 400 nM | < 20 nM | 20 to 100 nM | – | – | – | –
– | – | Cc1nc2ccc(Oc3ccc4ncc(-c5cnn(CC6CCNCC6)c5)nc4c3Cl)cc2[nH]1 [Compound 47] | – | – | – | – | – | – | IC50 ([1]; 72 hours): 100 to 400 nM; IC50 ([3]; 72 hours): 20 to 100 nM; IC50 [2]: ≥ 400 nM
– | – | C=CC(=O)N1CCC(CCn2cc(-c3cnc4ccc(Oc5ccc6nc(C)[nH]c6c5)cc4n3)cn2)CC1 [Compound 54] | ≥ 400 nM | 100 to 400 nM | 100 to 400 nM | – | – | – | –
– | – | C=CC(=O)N1CCC(Cn2cc(-c3cnc4ccc(Oc5ccc6nc(C)[nH]c6c5)cc4n3)cn2)CC1 [Compound 56] | ≥ 400 nM | 100 to 400 nM | ≥ 400 nM | – | – | – | –

IC50 ([1]; Homo sapiens, SNU-16, 72 h) | IC50 [7] | SMILES | IC50 ([2]; Homo sapiens) | IC50 ([3]; Homo sapiens, RT-112, 72 h) | IC50 [4] | IC50 [5] | IC50 [6] | IC50 [8] | further results
– | – | Cc1nc2ccc(Oc3ccc4ncc(-c5cnn(CC6CCN(C)CC6)c5)nc4c3)cc2[nH]1 [Compound 57] | ≥ 400 nM | ≥ 400 nM | 100 to 400 nM | – | – | – | –
– | – | Cc1nc2ccc(Oc3ccc4ncc(-c5cnn(CC6CCOCC6)c5)nc4c3Cl)cc2[nH]1 [Compound 58] | 100 to 400 nM | 20 to 100 nM | 20 to 100 nM | – | – | – | –
– | 20 to 100 nM | CCS(=O)(=O)N1CC(CC#N)(n2cc(-c3cnc4ccc(Oc5ccc6nc(C)[nH]c6c5)c(Cl)c4n3)cn2)C1 [Compound 374] | – | – | – | < 20 nM | ≥ 400 nM | 20 to 100 nM | –
– | 20 to 100 nM | Cc1nc2ccc(Oc3ccc4ncc(-c5cnn(CC6CCNCC6F)c5)nc4c3Cl)cc2[nH]1 (centres unmarked) [Compound 375] | – | – | – | < 20 nM | 100 to 400 nM | 20 to 100 nM | –
– | 20 to 100 nM | Cc1nc2ccc(Oc3ccc4ncc(-c5cnn(CCC6C=CCO6)c5)nc4c3Cl)cc2[nH]1 (centres unmarked) [Compound 376] | – | – | – | 20 to 100 nM | ≥ 400 nM | 20 to 100 nM | –
– | 20 to 100 nM | Cc1nc2ccc(Oc3ccc4ncc(-c5cnn(CC6CCSCC6)c5)nc4c3Cl)cc2[nH]1 [Compound 377] | – | – | – | 20 to 100 nM | ≥ 400 nM | 20 to 100 nM | –
– | 20 to 100 nM | Cc1nc2ccc(Oc3ccc4ncc(-c5cnn(C6CCCN(C)C6)c5)nc4c3Cl)cc2[nH]1 (centres unmarked) [Compound 378] | – | – | – | 20 to 100 nM | ≥ 400 nM | 20 to 100 nM | –
– | 20 to 100 nM | Cc1nc2ccc(Oc3ccc4ncc(-c5cnn(CC6CC7CC6CN7C)c5)nc4c3Cl)cc2[nH]1 (centres unmarked) [Compound 379] | – | – | – | 20 to 100 nM | 100 to 400 nM | 20 to 100 nM | –
– | 20 to 100 nM | Cc1nc2ccc(Oc3ccc4ncc(-c5cnn(CC6CCN(C)CC6(F)F)c5)nc4c3Cl)cc2[nH]1 (centres unmarked) [Compound 380] | – | – | – | < 20 nM | ≥ 400 nM | 20 to 100 nM | –
– | 20 to 100 nM | Cc1nc2ccc(Oc3ccc4ncc(-c5cnn(CCN6CCCC6)c5)nc4c3Cl)cc2[nH]1 [Compound 381] | – | – | – | 20 to 100 nM | ≥ 400 nM | 20 to 100 nM | –
– | 20 to 100 nM | Cc1nc2ccc(Oc3ccc4ncc(-c5cnn(CC6CCN(C)CC6)c5)nc4c3C#N)cc2[nH]1 [Compound 382] | – | – | – | 20 to 100 nM | 100 to 400 nM | 20 to 100 nM | –
– | 20 to 100 nM | Cc1nc2ccc(Oc3ccc4ncc(-c5cnn(CC(=O)N6CCCC6)c5)nc4c3Cl)cc2[nH]1 [Compound 383] | – | – | – | 20 to 100 nM | ≥ 400 nM | 20 to 100 nM | –
– | ≥ 400 nM | C=CS(=O)(=O)N1CCC(Cn2cc(-c3cnc4ccc(Oc5ccc6nc(C)[nH]c6c5)c(Cl)c4n3)cn2)CC1 [Compound 384] | – | – | – | ≥ 400 nM | ≥ 400 nM | ≥ 400 nM | –
– | 20 to 100 nM | Cc1nc2ccc(Oc3ccc4ncc(-c5cnn(CC6CCS(=O)(=O)CC6)c5)nc4c3Cl)cc2[nH]1 [Compound 385] | – | – | – | < 20 nM | 100 to 400 nM | 20 to 100 nM | –
– | 20 to 100 nM | Cc1nc2ccc(Oc3ccc4ncc(-c5cnn(CC6CCNCC6(F)F)c5)nc4c3Cl)cc2[nH]1 (centres unmarked) [Compound 386] | – | – | – | 20 to 100 nM | ≥ 400 nM | 20 to 100 nM | –
– | 20 to 100 nM | Cc1nc2ccc(Oc3ccc4ncc(-c5cnn(CC6CC(F)(F)C6)c5)nc4c3Cl)cc2[nH]1 [Compound 387] | – | – | – | 20 to 100 nM | ≥ 400 nM | 20 to 100 nM | –
– | 100 to 400 nM | CCOC(Cn1cc(-c2cnc3ccc(Oc4ccc5nc(C)[nH]c5c4)c(Cl)c3n2)cn1)OCC [Compound 388] | – | – | – | 100 to 400 nM | ≥ 400 nM | 100 to 400 nM | –
– | 20 to 100 nM | Cc1nc2ccc(Oc3ccc4ncc(-c5cnn(CC6OCCCO6)c5)nc4c3Cl)cc2[nH]1 [Compound 389] | – | – | – | 20 to 100 nM | ≥ 400 nM | 100 to 400 nM | –
